Among the data in patent US10752609B2, “GSK-3 inhibitors” (priority 2016, dated 2020) are IC50 values, retold here.

Test [1] addresses GSK3β (Homo sapiens, UniProt P49841). The test is described as follows: GSK3β kinase assay (Caliper LabChip3000 mobility shift, fluoresceinated peptide substrate). In kind it is biochemical. As to conditions: for IC50: 250 pM enzyme, 20 uM ATP, 1.5 uM peptide, 20 hours room temperature, first value of cell GSK3β/GSK3α, read-out: GSK3β (nM), IC50.
The test system of test [2] is pTau. The experiment in a line: pTau assay (no method described). In kind it is cell-based.
Test [3] has as its target GSK3α (Homo sapiens, UniProt P49840). The test is described as follows: GSK3α kinase assay (Caliper LabChip3000 mobility shift, fluoresceinated peptide substrate).

Structures are written as SMILES. pIC50: −log10 of the molar value. Where two headings read alike, the source gives them in different places.

GSK3β, sequence (P49841 whole entry, species assumed): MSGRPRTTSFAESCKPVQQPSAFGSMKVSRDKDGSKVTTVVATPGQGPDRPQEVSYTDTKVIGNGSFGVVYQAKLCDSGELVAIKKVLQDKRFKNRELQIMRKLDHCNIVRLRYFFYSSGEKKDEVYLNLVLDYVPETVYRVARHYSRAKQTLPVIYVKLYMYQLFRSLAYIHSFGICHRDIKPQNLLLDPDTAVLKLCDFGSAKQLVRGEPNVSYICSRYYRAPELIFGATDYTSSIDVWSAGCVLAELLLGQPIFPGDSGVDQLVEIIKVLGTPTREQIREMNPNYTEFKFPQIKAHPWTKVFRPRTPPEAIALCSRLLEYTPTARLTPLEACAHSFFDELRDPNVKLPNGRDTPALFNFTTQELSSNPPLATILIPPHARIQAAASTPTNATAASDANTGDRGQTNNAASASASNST
GSK3α, sequence (P49840 whole entry, species assumed): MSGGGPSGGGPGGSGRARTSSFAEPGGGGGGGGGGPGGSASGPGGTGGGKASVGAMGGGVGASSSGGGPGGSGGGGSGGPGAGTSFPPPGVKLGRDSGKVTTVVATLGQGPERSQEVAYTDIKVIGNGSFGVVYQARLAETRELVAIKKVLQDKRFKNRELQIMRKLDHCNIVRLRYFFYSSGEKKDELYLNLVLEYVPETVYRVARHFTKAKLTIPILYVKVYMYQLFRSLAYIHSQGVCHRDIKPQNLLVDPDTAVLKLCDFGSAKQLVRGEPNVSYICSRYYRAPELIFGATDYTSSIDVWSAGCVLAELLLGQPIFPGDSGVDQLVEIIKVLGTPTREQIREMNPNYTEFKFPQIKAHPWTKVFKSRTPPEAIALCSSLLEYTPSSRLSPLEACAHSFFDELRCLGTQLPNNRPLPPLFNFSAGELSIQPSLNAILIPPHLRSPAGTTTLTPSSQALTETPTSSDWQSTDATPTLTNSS

Regarding `CN1CCC(Nc2nccc(C(=O)Nc3cnccc3-c3ccccc3F)n2)CC1` [Example 162, N-(4-(2-Fluorophenyl)pyridin-3-yl)-2-((1-methylpiperidin-4-yl)amino)pyrimidine-4-carboxamide], the IC50 – broadly, the point on the concentration scale where inhibition reaches its midpoint – in test [1] stood at 32 nM. Moreover, the negative logarithm of the IC50 (pIC50) (usually the negative decadic logarithm of the IC50, by convention in mol/L) in test [2] is 5.66; in test [3] it was 7.41.

With `O=C(Nc1cnccc1-c1ccccc1)c1ccnc(Nc2ccccn2)n1` [Example 163, N-(4-Phenylpyridin-3-yl)-2-(pyridin-2-ylamino)pyrimidine-4-carboxamide], the IC50 in test [1] was determined as 310 nM. The negative-log IC50 (pIC50) in test [2] is 5.00; in test [3], 6.68.

`O=C(Nc1cnccc1-c1ccc(F)cc1F)c1ccnc(Nc2cccnn2)n1` [Example 164, N-(4-(2,4-Difluorophenyl)pyridin-3-yl)-2-(pyridazin-3-ylamino)pyrimidine-4-carboxamide]: the IC50 in test [1] came out at 1500 nM. For the same molecule, the pIC50 in test [2] is 5.00; in test [3] it was 6.11.

With `CN1CCC(Nc2nccc(C(=O)Nc3cnccc3-c3ccccc3)n2)CC1` [Example 165, 2-((1-Methylpiperidin-4-yl)amino)-N-(4-phenylpyridin-3-yl)pyrimidine-4-carboxamide], the IC50 in test [1] worked out at 91 nM. Besides, the pIC50 in test [2] was 5.48; in test [3], 6.96.

For `CCCC1(c2cc(Cl)ncc2NC(=O)c2ccnc(NC3CC3)n2)OCCO1` [Example 166, N-(6-Chloro-4-(2-propyl-1,3-dioxolan-2-yl)pyridin-3-yl)-2-(cyclopropylamino)pyrimidine-4-carboxamide], the 50% inhibitory concentration (IC50) in test [1] came out at 0.73 nM. For the same molecule, the pIC50 was 6.66 in test [2] and 8.77 in test [3].

Turning to `CCCC1(c2cc(Cl)ncc2NC(=O)c2ccnc(NC3CCOCC3)n2)OCCO1` [Example 167, N-(6-Chloro-4-(2-propyl-1,3-dioxolan-2-yl)pyridin-3-yl)-2-((tetrahydro-2H-pyran-4-yl)amino)pyrimidine-4-carboxamide], in test [1], the IC50 turned out to be 0.43 nM. In addition, the negative-log IC50 (pIC50) was 7.16 in test [2] and 9.33 in test [3].

For the molecule `O=C(Nc1cnc(F)cc1N1CCOCC1)c1ccnc(Nc2cccc(Cl)c2)n1` [Example 168], the concentration for half-maximal inhibition (IC50) in test [1] was 0.17 nM. For the same molecule, the pIC50 in test [2] is 7.68; in test [3], 9.70.

For `O=C(Nc1cnc(F)cc1N1CCOCC1)c1ccnc(Nc2ccc(Cl)c(F)c2)n1` [Example 169, 2-((4-Chloro-3-fluorophenyl)amino)-N-(6-fluoro-4-morpholinopyridin-3-yl)pyrimidine-4-carboxamide], in test [1], the half-maximal inhibitory concentration (IC50) stood at 0.27 nM. In addition, the negative logarithm of the IC50 (pIC50) in test [2] was 7.47; in test [3], 9.82.

Take `O=C(Nc1cnc(F)cc1N1CCOCC1)c1ccnc(Nc2ccc(Cl)cc2)n1` [Example 170]: in test [1], the IC50 stood at 0.34 nM. The values for the pIC50 in test [2] and in test [3] were 7.32 and 9.68, respectively.

Turning to `O=C(Nc1cnc(F)cc1N1CCOCC1)c1ccnc(Nc2ccc(Cl)cc2F)n1` [Example 171, 2-((4-Chloro-2-fluorophenyl)amino)-N-(6-fluoro-4-morpholinopyridin-3-yl)pyrimidine-4-carboxamide], the pIC50 is 9.24 in test [1], 7.23 in test [2] and 9.33 in test [3].

Turning to `O=C(Nc1cnc(F)cc1N1CCOCC1)c1ccnc(Nc2cccc(OC(F)(F)F)c2)n1` [Example 172, N-(6-Fluoro-4-morpholinopyridin-3-yl)-2-((3-(trifluoromethoxy)phenyl)amino)pyrimidine-4-carboxamide], in test [1], the half-inhibitory concentration (IC50) turned out to be 0.89 nM. In addition, the pIC50 is 6.80 in test [2] and 9.34 in test [3].

As for `CC(C)(C)CNc1nccc(C(=O)Nc2cnc(F)cc2N2CCOCC2)n1` [Example 173], the values for the negative logarithm of the IC50 (pIC50) in test [1], in test [2] and in test [3] were 8.96, 7.16 and 9.31, respectively.

On to `N#Cc1ccc(Nc2nccc(C(=O)Nc3cnc(F)cc3N3CCOCC3)n2)cc1` [Example 174, 2-((4-Cyanophenyl)amino)-N-(6-fluoro-4-morpholinopyridin-3-yl)pyrimidine-4-carboxamide], for which, in test [1], the 50% inhibitory concentration (IC50) turned out to be 1.1 nM. In addition, the negative logarithm of the IC50 (pIC50) is 7.27 in test [2] and 8.80 in test [3].

Take `O=C(Nc1cnc(F)cc1N1CCOCC1)c1ccnc(NC2COC2)n1` [Example 175, N-(6-Fluoro-4-morpholinopyridin-3-yl)-2-(oxetan-3-ylamino)pyrimidine-4-carboxamide]: the half-inhibitory concentration (IC50) in test [1] came out at 46 nM. In addition, the negative logarithm of the IC50 (pIC50) in test [2] was 5.68; in test [3], 7.57.

In the case of `N#Cc1ccc(Nc2nccc(C(=O)Nc3cnc(F)cc3N3CCC(F)(F)CC3)n2)cc1` [Example 176, 2-((4-Cyanophenyl)amino)-N-(4-(4,4-difluoropiperidin-1-yl)-6-fluoropyridin-3-yl)pyrimidine-4-carboxamide], the results for the pIC50 in test [1], in test [2] and in test [3] were 9.49, 7.55 and 9.55, respectively.

For the molecule `O=C(Nc1cnc(F)cc1N1CCC(F)(F)CC1)c1ccnc(Nc2ccccc2)n1` [Example 177, N-(4-(4,4-Difluoropiperidin-1-yl)-6-fluoropyridin-3-yl)-2-(phenylamino)pyrimidine-4-carboxamide], the IC50 in test [1] turned out to be 0.47 nM. For the same molecule, the negative-log IC50 (pIC50) in test [2] was 7.22; in test [3], 9.39.

Turning to `O=C(Nc1cnc(F)cc1N1CCC(F)(F)CC1)c1ccnc(Nc2ccc(Cl)cc2)n1` [Example 178, 2-((4-Chlorophenyl)amino)-N-(4-(4,4-difluoropiperidin-1-yl)-6-fluoropyridin-3-yl)pyrimidine-4-carboxamide], the IC50 in test [1] was determined as 0.67 nM. Further, the pIC50 in test [2] is 7.16; in test [3] it was 9.24.

Turning to `O=C(Nc1cnc(F)cc1N1CCC(F)(F)CC1)c1ccnc(NCC2CC2)n1` [Example 179, 2-((Cyclopropylmethyl)amino)-N-(4-(4,4-difluoropiperidin-1-yl)-6-fluoropyridin-3-yl)pyrimidine-4-carboxamide], the 50% inhibitory concentration (IC50) in test [1] came out at 0.7 nM. Besides, the pIC50 was 7.03 in test [2] and 9.21 in test [3].

On to `O=C(Nc1cnc(F)cc1N1CCC(F)(F)CC1)c1ccnc(Nc2ccc(F)cc2)n1` [Example 180, N-(4-(4,4-Difluoropiperidin-1-yl)-6-fluoropyridin-3-yl)-2-((4-fluorophenyl)amino)pyrimidine-4-carboxamide], for which the 50% inhibitory concentration (IC50) in test [1] turned out to be 0.9 nM. Further, the values for the negative logarithm of the IC50 (pIC50) in test [2] and in test [3] were 7.17 and 9.41, respectively.

Consider `O=C(Nc1cnc(F)cc1N1CCC(F)(F)CC1)c1ccnc(Nc2ccc(OC(F)F)cc2)n1` [Example 181, 2-((4-(Difluoromethoxy)phenyl)amino)-N-(4-(4,4-difluoropiperidin-1-yl)-6-fluoropyridin-3-yl)pyrimidine-4-carboxamide], for which the IC50 in test [1] came out at 1.2 nM. The results for the pIC50 in test [2] and in test [3] were 7.11 and 8.80, respectively.

For the molecule `Cc1cc(N2CCC(F)(F)CC2)c(NC(=O)c2ccnc(Nc3ccc(Cl)cc3)n2)cn1` [Example 182, 2-((4-Chlorophenyl)amino)-N-(4-(4,4-difluoropiperidin-1-yl)-6-methylpyridin-3-yl)pyrimidine-4-carboxamide], the 50% inhibitory concentration (IC50) in test [1] was 2.5 nM. The negative-log IC50 (pIC50) in test [2] was 6.66; in test [3] it was 9.00.
